System: 323965-272-R-J2-PDC complex spheroid viability
Assay: Anticancer human tumor 323965-272-R-J2-PDC patient-derived pancreatic carcinoma cell line growth inhibition [CLK]
Conditions: for IC50: curve of first compound; for viability, T/C: stronger effect = lower value
Outline: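 Patient-derived tumor cells grown as complex spheroids with HUVEC endothelial cells and mesenchymal stem cells, treated with drug combinations. Concentrations descend in half-log steps from near clinical Cmax, or from 10 microM if Cmax unknown.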

[1] = second compound 0.0316 µM, first compound 0.0316 µM
[2] = second compound 0.0316 µM, first compound 0.1 µM
[3] = second compound 0.0316 µM, first compound 0.316 µM
[4] = second compound 0.0316 µM, first compound 1 µM
[5] = second compound 0.1 µM, first compound 0.0316 µM
[6] = second compound 0.1 µM, first compound 0.1 µM
[7] = second compound 0.1 µM, first compound 0.316 µM
[8] = second compound 0.1 µM, first compound 1 µM
[9] = second compound 0.316 µM, first compound 0.0316 µM
[10] = second compound 0.316 µM, first compound 0.1 µM
[11] = second compound 0.316 µM, first compound 0.316 µM
[12] = second compound 0.316 µM, first compound 1 µM
[13] = second compound 1 µM, first compound 0.0316 µM
[14] = second compound 1 µM, first compound 0.1 µM
[15] = second compound 1 µM, first compound 0.316 µM
[16] = second compound 1 µM, first compound 1 µM
[17] = second compound 3.16 µM, first compound 0.0316 µM
[18] = second compound 3.16 µM, first compound 0.1 µM
[19] = second compound 3.16 µM, first compound 0.316 µM
[20] = second compound 3.16 µM, first compound 1 µM
[21] = second compound 10 µM, first compound 0.0316 µM
[22] = second compound 10 µM, first compound 0.1 µM
[23] = second compound 10 µM, first compound 0.316 µM
[24] = second compound 10 µM, first compound 1 µM
[25] = second compound 0.0316 µM, first compound 3.16 µM
[26] = second compound 0.0316 µM, first compound 10 µM
[27] = second compound 0.1 µM, first compound 3.16 µM
[28] = second compound 0.1 µM, first compound 10 µM
[29] = second compound 0.316 µM, first compound 3.16 µM
[30] = second compound 0.316 µM, first compound 10 µM
[31] = second compound 1 µM, first compound 3.16 µM
[32] = second compound 1 µM, first compound 10 µM
[33] = second compound 3.16 µM, first compound 3.16 µM
[34] = second compound 3.16 µM, first compound 10 µM
[35] = second compound 10 µM, first compound 3.16 µM
[36] = second compound 10 µM, first compound 10 µM
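Further: spheroids exposed to agents for seven days before readout.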
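Wherever viability, T/C is given: percent of DMSO vehicle control wells so 100% = untreated growth.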

## COc1c(OCCCN2CCOCC2)ccc2c3n(c(=NC(=O)c4cnc(N)nc4)nc12)CCN3 + CNC(=O)c1ccc(Nc2nc(OC3CCCC3)c3c(-c4ccc5nc(C)oc5c4)c[nH]c3n2)c(OC)c1
Second compound 0.0316 µM
  IC50: 90.7 nM
Second compound 0.1 µM
  IC50: 62.2 nM
Second compound 0.316 µM
  IC50: 16.3 nM
Second compound 1 µM
  IC50: < 3.16 nM
Second compound 3.16 µM
  IC50: < 3.16 nM
Second compound 10 µM
  IC50: < 3.16 nM
Second compound 0.0316 µM, first compound 0.00316 µM
  viability, T/C: 107%
Second compound 0.0316 µM, first compound 0.01 µM
  viability, T/C: 82%
[1]
  viability, T/C: 66.8%
[2]
  viability, T/C: 48.4%
[3]
  viability, T/C: 34.1%
[4]
  viability, T/C: 22.2%
Second compound 0.1 µM, first compound 0.00316 µM
  viability, T/C: 89.8%
Second compound 0.1 µM, first compound 0.01 µM
  viability, T/C: 84.6%
[5]
  viability, T/C: 58.8%
[6]
  viability, T/C: 42%
[7]
  viability, T/C: 31.2%
[8]
  viability, T/C: 21.1%
Second compound 0.316 µM, first compound 0.00316 µM
  viability, T/C: 64.5%
Second compound 0.316 µM, first compound 0.01 µM
  viability, T/C: 56.7%
[9]
  viability, T/C: 42.4%
[10]
  viability, T/C: 31.7%
[11]
  viability, T/C: 27.7%
[12]
  viability, T/C: 16.4%
Second compound 1 µM, first compound 0.00316 µM
  viability, T/C: 45.5%
Second compound 1 µM, first compound 0.01 µM
  viability, T/C: 38.8%
[13]
  viability, T/C: 31.8%
[14]
  viability, T/C: 24.5%
[15]
  viability, T/C: 21.4%
[16]
  viability, T/C: 15.2%
Second compound 3.16 µM, first compound 0.00316 µM
  viability, T/C: 37.5%
Second compound 3.16 µM, first compound 0.01 µM
  viability, T/C: 28.3%
[17]
  viability, T/C: 23.3%
[18]
  viability, T/C: 19.4%
[19]
  viability, T/C: 15.8%
[20]
  viability, T/C: 13.7%
Second compound 10 µM, first compound 0.00316 µM
  viability, T/C: 44.8%
Second compound 10 µM, first compound 0.01 µM
  viability, T/C: 32.7%
[21]
  viability, T/C: 26.4%
[22]
  viability, T/C: 19.8%
[23]
  viability, T/C: 17.1%
[24]
  viability, T/C: 13.5%

## C#Cc1c(F)ccc2cc(O)cc(-c3ncc4c(N5CC6CCC(C5)N6)nc(OCC56CCCN5CC(F)C6)nc4c3F)c12 (stereo unspecified) + CNC(=O)c1ccc(Nc2nc(OC3CCCC3)c3c(-c4ccc5nc(C)oc5c4)c[nH]c3n2)c(OC)c1
Second compound 0.0316 µM
  IC50: > 10000 nM
Second compound 0.1 µM
  IC50: 2630 nM
Second compound 0.316 µM
  IC50: 633 nM
Second compound 1 µM
  IC50: < 31.6 nM
Second compound 3.16 µM
  IC50: < 31.6 nM
Second compound 10 µM
  IC50: < 31.6 nM
[1]
  viability, T/C: 92.6%
[2]
  viability, T/C: 88.8%
[3]
  viability, T/C: 98.8%
[4]
  viability, T/C: 74.3%
[25]
  viability, T/C: 62.6%
[26]
  viability, T/C: 51.4%
[5]
  viability, T/C: 75%
[6]
  viability, T/C: 77.9%
[7]
  viability, T/C: 62.5%
[8]
  viability, T/C: 58.7%
[27]
  viability, T/C: 47.8%
[28]
  viability, T/C: 38.6%
[9]
  viability, T/C: 58.9%
[10]
  viability, T/C: 59.8%
[11]
  viability, T/C: 51.9%
[12]
  viability, T/C: 49.3%
[29]
  viability, T/C: 35.8%
[30]
  viability, T/C: 32.3%
[13]
  viability, T/C: 43.2%
[14]
  viability, T/C: 37.7%
[15]
  viability, T/C: 42.4%
[16]
  viability, T/C: 39.3%
[31]
  viability, T/C: 30.8%
[32]
  viability, T/C: 23.2%
[17]
  viability, T/C: 36.5%
[18]
  viability, T/C: 43.9%
[19]
  viability, T/C: 36.8%
[20]
  viability, T/C: 33.5%
[33]
  viability, T/C: 26%
[34]
  viability, T/C: 20.2%
[21]
  viability, T/C: 39.6%
[22]
  viability, T/C: 38.2%
[23]
  viability, T/C: 38.1%
[24]
  viability, T/C: 29.8%
[35]
  viability, T/C: 25.7%
[36]
  viability, T/C: 19.6%

## O=C(c1cc(Cc2n[nH]c(=O)c3ccccc23)ccc1F)N1CCN(C(=O)C2CC2)CC1 + CNC(=O)c1ccc(Nc2nc(OC3CCCC3)c3c(-c4ccc5nc(C)oc5c4)c[nH]c3n2)c(OC)c1
Second compound 0.0316 µM
  IC50: > 10000 nM
Second compound 0.1 µM
  IC50: > 10000 nM
Second compound 0.316 µM
  IC50: > 10000 nM
Second compound 1 µM
  IC50: > 10000 nM
Second compound 3.16 µM
  IC50: < 31.6 nM
Second compound 10 µM
  IC50: < 31.6 nM
[1]
  viability, T/C: 129%
[2]
  viability, T/C: 115%
[3]
  viability, T/C: 107%
[4]
  viability, T/C: 105%
[25]
  viability, T/C: 117%
[26]
  viability, T/C: 92%
[5]
  viability, T/C: 101%
[6]
  viability, T/C: 93.4%
[7]
  viability, T/C: 94.4%
[8]
  viability, T/C: 95.4%
[27]
  viability, T/C: 88.6%
[28]
  viability, T/C: 82.2%
[9]
  viability, T/C: 64.3%
[10]
  viability, T/C: 64.4%
[11]
  viability, T/C: 57.9%
[12]
  viability, T/C: 61.8%
[29]
  viability, T/C: 73.2%
[30]
  viability, T/C: 63.1%
[13]
  viability, T/C: 55.4%
[14]
  viability, T/C: 47.4%
[15]
  viability, T/C: 51.5%
[16]
  viability, T/C: 53.4%
[31]
  viability, T/C: 51.3%
[32]
  viability, T/C: 52.5%
[17]
  viability, T/C: 44%
[18]
  viability, T/C: 52.6%
[19]
  viability, T/C: 46.8%
[20]
  viability, T/C: 48.3%
[33]
  viability, T/C: 40%
[34]
  viability, T/C: 48.8%
[21]
  viability, T/C: 44.3%
[22]
  viability, T/C: 44.7%
[23]
  viability, T/C: 44.5%
[24]
  viability, T/C: 43.8%
[35]
  viability, T/C: 46.7%
[36]
  viability, T/C: 53.4%
